Measured values: ChEMBL document CHEMBL5233274, “Current Landscape and Future Perspective of Oxazolidinone Scaffolds Containing Antibacterial Drugs” (J Med Chem, 2021)
≈ marks a conversion by molar mass, not a printed value. Where “and” joins values, the source holds several entries; their conditions need not be identical. Equal values may be shown once.

How the values were obtained:
Assay type in all cases: functional
Escherichia coli [1] = test: Antibacterial activity against Escherichia coli assessed as inhibition of bacterial growth measured per 100 uL incubated for 24 hrs by agar well diffusion method
Bacillus subtilis [2] = test: Antibacterial activity against Bacillus subtilis assessed as inhibition of bacterial growth measured per 100 uL incubated for 24 hrs by agar well diffusion method
Staphylococcus aureus [3] = test: Antibacterial activity against Staphylococcus aureus assessed as inhibition of bacterial growth measured per 100 uL incubated for 24 hrs by agar well diffusion method
Pseudomonas aeruginosa [4] = test: Antibacterial activity against Pseudomonas aeruginosa assessed as inhibition of bacterial growth measured per 100 uL incubated for 24 hrs by agar well diffusion method
Saccharomyces cerevisiae = test: Antifungal activity against Saccharomyces cerevisiae assessed as inhibition of fungal growth incubated measured per 100 uL incubated for 24 hrs by agar well diffusion method
Candida albicans = test: Antifungal activity against Candida albicans assessed as inhibition of fungal growth incubated measured per 100 uL incubated for 24 hrs by agar well diffusion method
Staphylococcus aureus [5] = test: Antibacterial activity against linezolid and methicillin-resistant Staphylococcus aureus assessed as inhibition of bacterial growth
Enterococcus [6] = test: Antibacterial activity against linezolid and vancomycin-resistant Enterococcus assessed as inhibition of bacterial growth
Escherichia coli [7] = test: Antibacterial activity against Escherichia coli assessed as inhibition of bacterial growth incubated for 18 hrs by CLSI protocol based method
Pseudomonas aeruginosa [8] = test: Antibacterial activity against Pseudomonas aeruginosa assessed as inhibition of bacterial growth incubated for 18 hrs by CLSI protocol based method
Bacillus subtilis [9] = test: Antimicrobial activity against Bacillus subtilis assessed as inhibition zone at 200 ug/ml incubated for 24 hrs by disk diffusion method; conditions: read-out: IZ
Fusarium oxysporum = test: Antimicrobial activity against Fusarium oxysporum assessed as inhibition zone at 200 ug/ml incubated for 24 hrs by disk diffusion method; conditions: read-out: IZ
Escherichia coli [10] = test: Antimicrobial activity against Escherichia coli assessed as inhibition zone at 200 ug/ml incubated for 24 hrs by disk diffusion method; conditions: read-out: IZ
Enterococcus faecalis [11] = test: Antibacterial activity against Enterococcus faecalis ATCC 29212 assessed as inhibition of bacterial growth by CLSI protocol based microdilution assay
Listeria monocytogenes = test: Antibacterial activity against Listeria monocytogenes assessed as inhibition of bacterial growth by CLSI protocol based microdilution assay
Staphylococcus aureus [12] = test: Antibacterial activity against Staphylococcus aureus assessed as inhibition of bacterial growth by CLSI protocol based microdilution assay
Enterococcus faecalis [13] = test: Antibacterial activity against Enterococcus faecalis ATCC 51299 assessed as inhibition of bacterial growth by CLSI protocol based microdilution assay
Pseudomonas aeruginosa [14] = test: Antibacterial activity against Pseudomonas aeruginosa assessed as inhibition of bacterial growth by CLSI protocol based microdilution assay
Klebsiella pneumoniae = test: Antibacterial activity against Klebsiella pneumoniae NCIM 5289 assessed as inhibition of bacterial growth incubated for 24 hrs by serial dilution method
Bacillus subtilis [15] = test: Antibacterial activity against Bacillus subtilis NCIM 2097 assessed as inhibition of bacterial growth incubated for 24 hrs by serial broth dilution method
Enterococcus faecalis [16] = test: Antibacterial activity against Streptococcus faecalis NCIM 2080 assessed as inhibition of bacterial growth incubated for 24 hrs by serial dilution method
Staphylococcus aureus [17] = test: Antibacterial activity against Staphylococcus aureus NCIM 5257 assessed as inhibition of bacterial growth incubated for 24 hrs by serial broth dilution method
Escherichia coli [18] = test: Antibacterial activity against Escherichia coli NCIM 2065 assessed as inhibition of bacterial growth incubated for 24 hrs by serial dilution method
Pseudomonas aeruginosa [19] = test: Antibacterial activity against Pseudomonas aeruginosa NCIM 5210 assessed as inhibition of bacterial growth incubated for 24 hrs by serial dilution method
Enterococcus [20] = test: Antibacterial activity against vancomycin-resistant Enterococcus assessed as inhibition of bacterial growth by CLSI protocol based method
Staphylococcus aureus [21] = test: Antibacterial activity against methicillin-resistant Staphylococcus aureus assessed as inhibition of bacterial growth by CLSI protocol based method
Staphylococcus aureus [22] = test: Antibacterial activity against Staphylococcus aureus ATCC 29213 assessed as inhibition of bacterial growth by CLSI protocol based method
Escherichia coli [23] = test: Antibacterial activity against Escherichia coli assessed as zone of inhibition at 100 ug/ml; conditions: read-out: IZ

O=C1NC(Cc2ccc(Nc3nc(-c4ccc(Cl)cc4)cs3)cc2)CO1 (configuration not stated)
MIC (Escherichia coli [1]): 12.5 µg
MIC (Bacillus subtilis [2]): 6.25 µg
MIC (Staphylococcus aureus [3]): 6.25 µg
MIC (Pseudomonas aeruginosa [4]): 12.5 µg
MIC (Saccharomyces cerevisiae): 12.5 µg
MIC (Candida albicans): 12.5 µg

O=C(CCl)NC[C@H]1CN(c2ccc(N3CCOCC3)c(F)c2)C(=O)O1
MIC (Staphylococcus aureus [5]): 0.13 µg/mL (≈ 0.35 µM)
MIC (Enterococcus [6]): 0.13 µg/mL (≈ 0.35 µM)

CNS(=O)(=O)c1ccc(C#CC#Cc2ccc(N3C[C@@H](C(=O)NO)OC3=O)cc2)cc1
MIC (Escherichia coli [7]): 0.078 µg/mL (≈ 0.177 µM)
MIC (Pseudomonas aeruginosa [8]): > 10 µg/mL

O=C1NC2(CO1)O/C(=C\c1ccc([N+](=O)[O-])cc1)C(=O)N2CCCNc1ccnc2cc(Cl)ccc12 (configuration not stated)
zone of inhibition at 200 µg/mL (Bacillus subtilis [9]): 14 mm
zone of inhibition at 200 µg/mL (Fusarium oxysporum): 14 mm
zone of inhibition at 200 µg/mL (Escherichia coli [10]): 14 mm

O=C(NO)[C@@H]1CN(c2ccc(C#Cc3ccccc3)cc2)C(=O)O1
MIC (Escherichia coli [7]): 0.625 µg/mL (≈ 1.94 µM)
MIC (Pseudomonas aeruginosa [8]): > 10 µg/mL

O=C1N[C@@H](Cc2ccc(NC(=S)Nc3ccc(Br)cc3)cc2)CO1
MIC (Enterococcus faecalis [11]): 25 µg/mL (≈ 61.5 µM)
MIC (Listeria monocytogenes): 25 µg/mL (≈ 61.5 µM)
MIC (Staphylococcus aureus [12]): 25 µg/mL (≈ 61.5 µM)
MIC (Enterococcus faecalis [13]): 25 µg/mL (≈ 61.5 µM)

COc1ccc(NC(=S)Nc2ccc(C[C@H]3COC(=O)N3)cc2)cc1
MIC (Pseudomonas aeruginosa [14]): 50 µg/mL (≈ 140 µM)

COc1ccc(/C=C2\OC3(COC(=O)N3)N(CCCNc3ccnc4cc(Cl)ccc34)C2=O)cc1 (configuration not stated)
zone of inhibition at 200 µg/mL (Bacillus subtilis [9]): 10 mm
zone of inhibition at 200 µg/mL (Fusarium oxysporum): 9 mm
zone of inhibition at 200 µg/mL (Escherichia coli [10]): 11 mm

COc1ccc(/C=C/C(=O)c2ccc(-c3ccc(N4C[C@H](CO)OC4=O)cc3)cc2)cc1
MIC (Klebsiella pneumoniae): 3.12 µg/mL (≈ 7.28 µM)
MIC (Bacillus subtilis [15]): 3.12 µg/mL (≈ 7.28 µM)
MIC (Enterococcus faecalis [16]): 3.12 µg/mL (≈ 7.28 µM)
MIC (Staphylococcus aureus [17]): 3.12 µg/mL (≈ 7.28 µM)
MIC (Escherichia coli [18]): 3.12 µg/mL (≈ 7.28 µM)
MIC (Pseudomonas aeruginosa [19]): 3.12 µg/mL (≈ 7.28 µM)

O=C1NC(Cc2ccc(Nc3nc(-c4c(O)oc(O)cc4=O)cs3)cc2)CO1 (configuration not stated)
MIC (Escherichia coli [1]): 12.5 µg
MIC (Bacillus subtilis [2]): 25 µg
MIC (Staphylococcus aureus [3]): 6.25 µg
MIC (Pseudomonas aeruginosa [4]): 6.25 µg
MIC (Saccharomyces cerevisiae; 24 h): 12.5 µg and 6.25 µg
MIC (Candida albicans): 12.5 µg

CC(=O)NC[C@H]1CN(c2ccc(N3CCN(/N=C/c4ccc([N+](=O)[O-])cc4)CC3)c(F)c2)C(=O)O1
MIC (Enterococcus [20]): 4 µg/mL (≈ 8.26 µM)
MIC (Staphylococcus aureus [21]): 4 µg/mL (≈ 8.26 µM)
MIC (Staphylococcus aureus [22]): 4 µg/mL (≈ 8.26 µM)

O=C(/C=C/c1ccc(O)cc1)c1ccc(-c2ccc(N3C[C@H](CO)OC3=O)cc2)cc1
MIC (Klebsiella pneumoniae): 3.12 µg/mL (≈ 7.52 µM)
MIC (Bacillus subtilis [15]): 3.12 µg/mL (≈ 7.52 µM)
MIC (Enterococcus faecalis [16]): 3.12 µg/mL (≈ 7.52 µM)
MIC (Staphylococcus aureus [17]): 3.12 µg/mL (≈ 7.52 µM)
MIC (Escherichia coli [18]): 3.12 µg/mL (≈ 7.52 µM)
MIC (Pseudomonas aeruginosa [19]): 3.12 µg/mL (≈ 7.52 µM)

O=C1NC(Cc2ccc(Nc3nc(-c4ccc(-c5ccccc5)cc4)cs3)cc2)CO1 (configuration not stated)
MIC (Escherichia coli [1]): 12.5 µg
MIC (Bacillus subtilis [2]): 6.25 µg
MIC (Staphylococcus aureus [3]): 6.25 µg
MIC (Pseudomonas aeruginosa [4]): 12.5 µg
MIC (Saccharomyces cerevisiae): 12.5 µg
MIC (Candida albicans): 12.5 µg

COc1cc(/C=C/C(=O)c2ccc(-c3ccc(N4C[C@H](CO)OC4=O)cc3)cc2)ccc1O
MIC (Klebsiella pneumoniae): 3.12 µg/mL (≈ 7.02 µM)
MIC (Bacillus subtilis [15]): 3.12 µg/mL (≈ 7.02 µM)
MIC (Enterococcus faecalis [16]): 3.12 µg/mL (≈ 7.02 µM)
MIC (Staphylococcus aureus [17]): 3.12 µg/mL (≈ 7.02 µM)
MIC (Escherichia coli [18]): 3.12 µg/mL (≈ 7.02 µM)
MIC (Pseudomonas aeruginosa [19]): 3.12 µg/mL (≈ 7.02 µM)

CCCN1C(=O)C(N2C(=O)OCC2Cc2ccc(/N=C/c3ccccc3)cc2)C1c1ccc(Cl)cc1Cl (configuration not stated)
zone of inhibition at 100 µg/mL (Escherichia coli [23]): 24 mm

O=C(NC[C@H]1CN(c2ccc(N3CCOCC3)c(F)c2)C(=O)O1)C(Cl)Cl
MIC (Staphylococcus aureus [5]): 0.25 µg/mL (≈ 0.615 µM)
MIC (Enterococcus [6]): 0.25 µg/mL (≈ 0.615 µM)

C[C@@H]1[C@H](O)[C@@H](C)/C=C/C=C/C=C/C=C/C=C/C=C/C=C/[C@H](O[C@@H]2O[C@H](C)[C@@H](O)[C@H](N)[C@@H]2O)C[C@@H]2O[C@](O)(C[C@@H](O)C[C@@H](O)[C@H](O)CC[C@@H](O)C[C@@H](O)CC(=O)O[C@H]1C)C[C@H](O)[C@H]2C(=O)O [AMPHOTERICIN B]
MIC (Escherichia coli [1]): 6.25 µg
MIC (Candida albicans): 6.25 µg

O=C(O)c1cn(C2CC2)c2cc(N3CCNCC3)c(F)cc2c1=O [CIPROFLOXACIN]
MIC (Bacillus subtilis [2]): 6.25 µg
MIC (Staphylococcus aureus [3]): 6.25 µg

OC(Cn1cncn1)(Cn1cncn1)c1ccc(F)cc1F [FLUCONAZOLE]
zone of inhibition at 200 µg/mL (Fusarium oxysporum): 23 mm

CC(=O)NC[C@H]1CN(c2ccc(N3CCN(Cc4ccc([N+](=O)[O-])o4)CC3)c(F)c2)C(=O)O1 [RANBEZOLID]
MIC (Enterococcus [20]): 2 µg/mL (≈ 4.33 µM)
MIC (Staphylococcus aureus [21]): 2 µg/mL (≈ 4.33 µM)
MIC (Staphylococcus aureus [22]): 1 µg/mL (≈ 2.17 µM)
